The source of these data is patent US20260250272A1, “N-SUBSTITUTED QUINOLINONE COMPOUND, PREPARATION METHOD THEREFOR AND USE THEREOF” (VIGONVITA LIFE SCIENCES CO., LTD., priority 2022, published 2026).

Data set [1] has as its target T1, human recombinant 5-HT2A receptor (Homo sapiens, UniProt P28223).
T1 construct: expressed in transfected cells; host or cells: CHO (5-HT2A-CHO)
Briefly: Antagonistic activity against the 5-HT2A receptor (IP-One-Gq, CHO cells). The format is cell-based. The following applies: serotonin stimulation. The method, then:
The antagonistic effect of the compounds on the 5-HT2A receptor in the CHO cells expressing the human recombinant 5-HT2A receptor was assayed by using the IP-One-Gq kit (Cisbio). […] Risperidone was used as a positive control.

The target in the next data set is T2, hERG potassium channel (Homo sapiens, UniProt Q12809).
T2 construct: expressed in transfected cells
T2 sequence (Q12809 whole entry): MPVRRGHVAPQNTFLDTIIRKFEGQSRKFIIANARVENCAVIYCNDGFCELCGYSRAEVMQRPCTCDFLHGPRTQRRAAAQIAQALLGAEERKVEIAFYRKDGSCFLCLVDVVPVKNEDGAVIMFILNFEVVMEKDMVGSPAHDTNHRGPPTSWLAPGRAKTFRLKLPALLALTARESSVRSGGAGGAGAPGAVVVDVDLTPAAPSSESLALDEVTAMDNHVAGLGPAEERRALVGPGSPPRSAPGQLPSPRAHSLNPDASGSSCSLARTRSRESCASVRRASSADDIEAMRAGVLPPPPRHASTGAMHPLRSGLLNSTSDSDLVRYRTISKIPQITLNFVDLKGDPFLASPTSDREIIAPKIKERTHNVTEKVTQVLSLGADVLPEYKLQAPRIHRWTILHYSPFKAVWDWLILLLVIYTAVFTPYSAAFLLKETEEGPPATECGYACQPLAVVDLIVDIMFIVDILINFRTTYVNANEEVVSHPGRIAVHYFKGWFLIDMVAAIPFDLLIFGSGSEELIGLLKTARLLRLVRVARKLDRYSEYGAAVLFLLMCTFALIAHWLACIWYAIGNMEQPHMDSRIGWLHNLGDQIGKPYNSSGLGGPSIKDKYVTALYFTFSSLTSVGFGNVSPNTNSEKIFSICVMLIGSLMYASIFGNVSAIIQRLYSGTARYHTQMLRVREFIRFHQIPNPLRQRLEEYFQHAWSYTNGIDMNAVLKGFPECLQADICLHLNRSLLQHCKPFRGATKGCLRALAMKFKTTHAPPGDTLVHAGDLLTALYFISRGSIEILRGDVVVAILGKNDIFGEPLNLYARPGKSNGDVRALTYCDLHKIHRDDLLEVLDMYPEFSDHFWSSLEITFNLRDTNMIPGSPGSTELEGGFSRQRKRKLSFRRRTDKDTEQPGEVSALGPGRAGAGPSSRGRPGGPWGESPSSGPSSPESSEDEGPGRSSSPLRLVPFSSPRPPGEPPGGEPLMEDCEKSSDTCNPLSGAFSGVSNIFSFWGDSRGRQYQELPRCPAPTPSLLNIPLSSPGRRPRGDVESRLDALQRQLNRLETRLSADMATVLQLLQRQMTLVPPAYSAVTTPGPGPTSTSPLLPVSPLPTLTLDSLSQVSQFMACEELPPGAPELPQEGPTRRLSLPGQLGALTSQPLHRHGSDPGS
Briefly: hERG potassium channel block, automatic patch clamp (QPatch, CHO cells). The format is cell-based. The following applies: CHO cells stably expressing hERG, highest concentration 20 μM; read-out: hERG inhibition (IC50). On the procedure:
The hERG potassium channel block experiment was performed using the full-automatic patch-clamp technique (QPatch^HTX, Sophion, Stockholm, Sweden). The cell line is CHO cells stably expressing the hERG potassium channel. The compounds were tested at the highest test concentration of 20 μM in 3-fold dilution (n=3).
A general note: hERG is a cardiac potassium channel; its block is linked to QT prolongation.

Data set [2] has as its target human recombinant D2L receptor (Homo sapiens, UniProt P14416). Briefly: Antagonistic activity against the D2L receptor (LANCE Ultra cAMP, CHO cells). Background: In TR-FRET formats the signal depends on donor and acceptor labels being close together.
Experimental: The antagonistic effect of the compounds on the D2L receptor in the CHO cells expressing the human recombinant D2L receptor was assayed by using the LANCE® Ultra cAMP kit (PerkinElmer, USA). […] Amisulpride was used as a positive control.
Data set [3] in a line: Oil solubility test in benzyl benzoate (HPLC). The conditions noted are these: organic solvent or mixture, thermodynamic from solid, 25° C., shaken 2 h. The format is physicochemical. On the procedure: The solubility test was performed by quantitative analysis using an external standard method of high-performance liquid chromatography.
Reference sample solution: 10 mg of reference sample was weighed, placed in a 20 mL volumetric flask, diluted to the scale with 80% acetonitrile, and shaken uniformly.
Test sample solution: an appropriate amount of sample was dissolved in benzyl benzoate to obtain a saturated solution. The mixture was placed in a shaker and shaken at 25° C. and 800 rpm for 2 h. The sample solution was filtered, and 100 μL of filtrate was added to a 10 mL volumetric flask, diluted to the scale with 80% acetonitrile, and shaken uniformly.

Another data set has as its target human D3 receptor (Homo sapiens, UniProt P35462). Briefly: cell-based.
In data set [4] the target is T3, human recombinant 5-HT1A receptor (Homo sapiens, UniProt P08908).
T3 construct: expressed in transfected cells; host or cells: HEK293
T3 sequence (P08908 1-422): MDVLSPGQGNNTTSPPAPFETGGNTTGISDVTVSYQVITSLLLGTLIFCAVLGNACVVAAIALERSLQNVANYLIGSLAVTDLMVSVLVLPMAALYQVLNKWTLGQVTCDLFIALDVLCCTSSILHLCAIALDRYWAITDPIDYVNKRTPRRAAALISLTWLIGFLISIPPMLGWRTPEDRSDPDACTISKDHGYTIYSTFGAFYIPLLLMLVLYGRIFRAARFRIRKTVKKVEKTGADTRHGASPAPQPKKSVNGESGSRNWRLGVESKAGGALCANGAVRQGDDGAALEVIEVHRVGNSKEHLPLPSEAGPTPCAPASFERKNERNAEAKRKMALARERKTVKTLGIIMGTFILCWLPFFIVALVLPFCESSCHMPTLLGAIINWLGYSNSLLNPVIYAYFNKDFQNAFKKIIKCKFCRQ
Briefly: Agonistic activity against the 5-HT1A receptor (LANCE cAMP, HEK293 cells). The following applies: inhibition of cAMP production. The format is cell-based.

The target of another data set is T4, human SERT (Homo sapiens, UniProt P31645).
T4 construct: expressed in transfected cells; host or cells: HEK-293 (HEK-hSERT)
T4 sequence (P31645 whole entry): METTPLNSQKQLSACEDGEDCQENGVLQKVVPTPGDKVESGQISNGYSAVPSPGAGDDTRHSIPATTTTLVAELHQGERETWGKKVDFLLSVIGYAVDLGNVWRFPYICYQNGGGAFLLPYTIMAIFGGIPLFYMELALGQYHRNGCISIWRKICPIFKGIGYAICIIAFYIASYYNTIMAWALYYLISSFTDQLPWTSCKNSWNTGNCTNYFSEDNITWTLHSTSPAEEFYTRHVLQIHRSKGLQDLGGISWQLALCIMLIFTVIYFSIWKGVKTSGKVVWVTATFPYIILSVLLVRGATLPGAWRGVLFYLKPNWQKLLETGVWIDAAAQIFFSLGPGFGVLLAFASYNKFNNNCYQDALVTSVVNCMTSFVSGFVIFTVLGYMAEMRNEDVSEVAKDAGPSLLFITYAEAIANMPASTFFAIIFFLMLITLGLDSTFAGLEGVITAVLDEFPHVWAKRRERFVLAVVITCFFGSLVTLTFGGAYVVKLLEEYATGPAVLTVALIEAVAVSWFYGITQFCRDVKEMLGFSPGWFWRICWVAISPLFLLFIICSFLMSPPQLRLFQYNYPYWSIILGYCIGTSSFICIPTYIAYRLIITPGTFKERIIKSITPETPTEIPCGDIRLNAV
Briefly: cell-based. The conditions noted are these: HEK-hSERT cells; read-out: Inhibitory activity against 5-HT transporter (IC50). The method, then:
The inhibitory effect of the compounds on the 5-HT transporter in the HEK-293 cells expressing human SERT was evaluated by using the neurotransmitter transporter uptake assay kit (Molecular Devices).

Data set [5] in a line: Human liver microsome assay. Format: in vitro ADME. The method, then: Preparation of magnesium-potassium buffer solution: a 100 mM potassium buffer and 5 mM MgCl2 were preheated together to obtain a magnesium-potassium buffer at a pH of 7.41. Preparation of 0.5 mM working solution: a 10 mM compound stock solution was added to 95 μL of acetonitrile. Preparation of 1.5 μM working solution containing microsomes (0.75 mg/mL): 1.5 μL of the 0.5 mM working solution and 18.75 μL of 20 mg/mL human liver microsome solution were added to 479.75 μL of the magnesium-potassium buffer. Preparation of NADPH stock solution (6 mM, 5 mg/mL): NADPH was dissolved in the magnesium-potassium buffer. 30 μL of 1.5 μM working solution containing 0.75 mg/mL human liver microsomes were added to each of the wells of a 96-well plate, and the plate was pre-incubated at 37° C. for 5 min. For a sample at 0 min, 150 μL of acetonitrile solution containing an internal standard was added, and then 15 μL of NADPH stock solution (6 mM) was added to initiate the reaction. For samples at other time points, 15 μL of NADPH stock solution (6 mM) was directly added to initiate the reaction. Final content of components: compound (1 μM), human liver microsomes (0.5 mg/mL), and NADPH (2 mM). 150 μL of cold stop buffer containing an internal standard was added at time points of 5 min, 15 min, 30 min, and 45 min to stop the sample reaction, the plate was centrifuged at 600 rpm for 10 min and then at 6000 rpm for 15 min, and the supernatant was taken for LC-MS/MS analysis.
A standard curve of the ln residual rate of the drug in the incubation system with respect to the incubation time was plotted by using Excel software, linear regression was performed to obtain a slope k, and the half-life T1/2 (min) and the intrinsic clearance CLint (mL/min/kg) value were calculated according to the following formula: […]
(Liver microsomes are a subcellular fraction often used to study metabolism.)

Data set [6] can be described thus: Pharmacokinetic experiment in rats, intramuscular injection. The format is in vivo. The conditions noted are these: SD male rats, 43.3 mmol/kg, benzyl benzoate vehicle, up to day 36. The method, then:
The pharmacokinetic experiment in rats was performed on compounds 2, 3, 5, 6, 7, and 8 (non-fasting SD male rats, administered intramuscularly, at a dose of 43.3 mmol/kg, n=3). The vehicle was benzyl benzoate, the injection site was the thigh muscle of the hind limb, and about 0.3 mL of blood samples were collected from the jugular vein of rats at blood collection time points of day 0.25, day 2, day 4, day 6, day 8, day 15, day 22, day 29, and day 36. The collected blood was stored under ice-cold conditions, plasma was rapidly isolated by centrifugation and the precipitant was added, and the concentration of compound 1 (active metabolite) was quantitatively determined by LCMS.

Converted amounts (≈) assume the structure as drawn.

T1 sequence (P28223 whole entry): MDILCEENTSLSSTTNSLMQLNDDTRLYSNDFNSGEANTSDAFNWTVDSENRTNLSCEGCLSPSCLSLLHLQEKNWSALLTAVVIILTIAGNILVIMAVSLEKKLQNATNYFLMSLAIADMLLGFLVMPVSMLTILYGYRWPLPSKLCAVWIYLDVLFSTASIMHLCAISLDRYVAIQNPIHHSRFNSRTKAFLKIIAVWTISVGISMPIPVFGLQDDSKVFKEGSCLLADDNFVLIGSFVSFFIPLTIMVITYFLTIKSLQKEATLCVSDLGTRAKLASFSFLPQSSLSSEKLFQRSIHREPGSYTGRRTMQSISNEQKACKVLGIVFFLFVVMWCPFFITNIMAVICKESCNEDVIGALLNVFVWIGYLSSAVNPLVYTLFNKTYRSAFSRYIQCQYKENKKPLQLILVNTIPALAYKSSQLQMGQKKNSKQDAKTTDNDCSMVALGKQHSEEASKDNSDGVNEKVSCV
Chain of human recombinant D2L receptor (P14416 whole entry): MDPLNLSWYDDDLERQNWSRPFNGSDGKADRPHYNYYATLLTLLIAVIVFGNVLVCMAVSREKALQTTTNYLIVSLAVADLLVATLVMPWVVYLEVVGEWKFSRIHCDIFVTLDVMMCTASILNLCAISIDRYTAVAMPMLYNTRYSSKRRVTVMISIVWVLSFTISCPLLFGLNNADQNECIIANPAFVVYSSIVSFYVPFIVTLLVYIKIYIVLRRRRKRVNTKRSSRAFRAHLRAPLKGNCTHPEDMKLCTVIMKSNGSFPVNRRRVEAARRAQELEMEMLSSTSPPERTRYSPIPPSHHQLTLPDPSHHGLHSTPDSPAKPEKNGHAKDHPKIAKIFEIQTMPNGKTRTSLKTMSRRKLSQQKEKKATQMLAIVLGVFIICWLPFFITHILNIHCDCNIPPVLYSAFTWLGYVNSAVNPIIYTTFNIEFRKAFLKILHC
Chain of human D3 receptor (P35462 whole entry): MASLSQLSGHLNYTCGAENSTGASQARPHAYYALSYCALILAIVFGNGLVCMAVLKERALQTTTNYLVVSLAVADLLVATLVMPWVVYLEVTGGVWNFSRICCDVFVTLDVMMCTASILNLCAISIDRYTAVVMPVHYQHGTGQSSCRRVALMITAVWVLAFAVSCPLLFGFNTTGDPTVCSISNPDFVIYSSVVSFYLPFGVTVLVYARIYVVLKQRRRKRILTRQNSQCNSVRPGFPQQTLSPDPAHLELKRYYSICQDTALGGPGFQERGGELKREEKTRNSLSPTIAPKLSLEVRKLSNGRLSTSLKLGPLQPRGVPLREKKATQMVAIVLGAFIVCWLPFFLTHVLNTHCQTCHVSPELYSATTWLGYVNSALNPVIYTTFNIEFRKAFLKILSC

For the compound `O=C1CCc2ccc(CCN3CCN(c4cc(F)cc5sccc45)CC3)cc2N1` [Compound 1-a, 7-(2-(4-(6-fluorophenothiophen-4-yl)piperazin-1-yl)ethyl)-3,4-dihydroquinolin-2(1H)-one, reference compound], the results for the IC50 (in data set [1]; at hERG potassium channel; in data set [2]) were 33 nM, 920 nM and 4.4 nM, respectively. The solubility at 2 h in data set [3] stood at 22.4 mg/mL (≈ 54.6 mM).

As to `O=C1CCc2ccc(CCN3CCN(c4cc(F)cc5sccc45)CC3)cc2N1CO` [Compound 1], the values for the EC50 (at human D3 receptor; in data set [4]) were 7.1 nM and 0.7 nM, respectively. In addition, the IC50 in data set [1] worked out at 32 nM; on hERG potassium channel, 1810 nM; in data set [2], 3.5 nM; on human SERT, 13 nM.

With `CCCCCCCCCCCCCCCC(=O)OCN1C(=O)CCc2ccc(CCN3CCN(c4cc(F)cc5sccc45)CC3)cc21` [Compound 8, (7-(2-(4-(6-fluorobenzo[b]thiophen-4-yl)piperazin-1-yl)ethyl)-2-oxo-3,4-dihydroquinolin-1(2H)-yl)methyl palmitate], the “Metabolic stability in human liver microsomes (in words)” value in data set [5] (human liver microsomes) is given as “good metabolic stability”. Besides, in [5] (pH 7.41, human liver microsomes 0.5 mg/mL, compound 1 μM, NADPH 2 mM, read-out: Half-life (t1/2, min)), the half-life at 1 μM was more than 120 min. Moreover, the “Fluctuation in the plasma concentration of the active metabolite (compound 1)” value in data set [6] is “minimal fluctuation”. In data set [3], the solubility at 2 h was more than 200 mg/mL.

A word on the IC50: it is the concentration that gives 50% inhibition. What is called solubility is the concentration that dissolves in the medium under given conditions. For orientation: EC50 means the concentration giving half of the maximal effect.
